Converted amounts (≈) assume the structure as drawn. Where two headings read alike, the source gives them in different places.
Assays:
Type in all cases: cell-based
[1] = system: Staphylococcus aureus (ATTC 25923); experiment: microbe, parasite or virus in culture
Procedure, shortened: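 Di-TFA salts tested in duplicate at 0.5–200 μg/ml against exponential-phase bacteria at 2×10^6 cfu/ml grown in 2% peptone water. Growth judged by well turbidity, with no-peptide and gentamicin controls.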

[2] = system: methicillin resistant Staphylococcus epidermidis (ATCC 27626); experiment: microbe, parasite or virus in culture
Procedure, shortened: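 Exponentially grown bacteria (2% peptone water) at 2×10^6 cfu/ml exposed in duplicate to di-TFA salts at 0.5–200 μg/ml. Growth or no growth judged by well turbidity; no-peptide and gentamicin controls included.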

[3] = system: Escherichia coli (ATTC 25922); experiment: microbe, parasite or virus in culture
Procedure, shortened: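 Broth dilution in 2% Bacto Peptone water, inoculum 2×10^6 cfu/ml of exponential-phase bacteria; compounds (di-TFA salts) tested in duplicate at 200 down to 0.5 μg/ml. Growth judged by well turbidity, with no-peptide negative and gentamicin positive controls.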

[4] = system: human red blood cells; experiment: cells
Procedure, shortened: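 Washed heparinized RBCs, diluted to 10% hematocrit then to 1% v/v final, incubated with compounds in PBS (1–1000 μg/mL) for 1 h at 37 °C with agitation. Hemoglobin release read at 405 nm against PBS (0%) and 0.1% Triton X-100 (100%); value reported is concentration giving 50% hemolysis.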

[5] = system: A20; experiment: cells; details: for IC50: Mus musculus, A20, Example 2, read-out: Anticancer potency (IC50) A20; for Anti-Cancer Selectivity MRC-5/A20: ratio of MRC-5 to A20 values; for Anti-Cancer Selectivity RBC/A20: ratio of RBC EC50 to A20 IC50
Protocol: Cancer Cell Lines A20 or MethA Anticancer assays: 500 μg/ml

[6] = system: MRC-5; experiment: Toxicity assay MRC-5; details: highest concentration tested 500 μg/ml; for IC50: Homo sapiens, MRC5, Example 2
Protocol: Cells for Toxicity Studies Used MRC-5 and human RBC MRC-5 assay: 500 μg/ml

[7] = system: methicillin resistant Staphylococcus aureus (ATCC 33591); experiment: microbe, parasite or virus in culture
Procedure, shortened: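 Di-TFA salts tested in duplicate at 200 down to 0.5 μg/ml against exponentially grown bacteria at 2×10^6 cfu/ml. Growth judged by well turbidity, with no-peptide and gentamicin controls.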

[8] = system: Pseudomonas aeruginosa (ATCC 27853); experiment: microbe, parasite or virus in culture; details: for MIC: read-out: MIC P. aeruginosa
Protocol: Each compound was tested in duplicates at 200, 100, 50, 35, 15, 10, 5, 2.5, 1, 0.5 μg/ml. All tested compounds were di-trifluoroacetic acid salts.

[9] = Example 2, values separated by / are repeat tests
[10] = Staphylococcus aureus, Example 2, values separated by / are repeat tests, read-out: Antimicrobial potency (MIC) S. aureus
[11] = Staphylococcus epidermidis, ATCC 27626 / MRSE, Example 2, values separated by / are repeat tests, read-out: Antimicrobial potency (MIC) MRSE
[12] = Escherichia coli, Example 2, values separated by / are repeat tests, read-out: Antimicrobial potency (MIC) E. coli
[13] = Homo sapiens, Erythrocyte, Example 2, highest concentration tested 1000 μg/ml, * low solubility in the test media, read-out: Toxicity RBC (EC50)
[14] = highest concentration tested 500 μg/ml, * low solubility in the test media (Table 2)
[15] = Staphylococcus aureus, ATCC 33591 / MRSA, Example 2, values separated by / are repeat tests, read-out: Antimicrobial potency (MIC) MRSA
[16] = Staphylococcus aureus, ATCC25923, Example 4, ATCC 25923, di-trifluoroacetate salts, highest concentration tested 200 μg/ml, read-out: MIC S. aureus
[17] = Staphylococcus aureus, ATCC33591, Example 4, ATCC 33591, di-trifluoroacetate salts, highest concentration tested 200 μg/ml, read-out: MIC MTRSA
[18] = Staphylococcus epidermidis, ATCC 27626 / MRSE, Example 4, ATCC 27626, di-trifluoroacetate salts, highest concentration tested 200 μg/ml, read-out: MIC MRSE
[19] = Escherichia coli, ATCC25922, Example 4, ATCC 25922, di-trifluoroacetate salts, highest concentration tested 200 μg/ml, read-out: MIC E. coli
[20] = Pseudomonas aeruginosa, ATCC27853, Example 4, ATCC 27853, di-trifluoroacetate salts, highest concentration tested 200 μg/ml
[21] = Erythrocyte, Example 4, hemolytic activity, human red blood cells, highest concentration tested 1000 μg/ml, read-out: EC50 RBC

Row | Compound | MIC [1, 10] | MIC [2, 11] | MIC [3, 12] | EC50 [4, 13] | IC50 [5, 14] | Anti-Cancer Selectivity MRC-5/A20 [5] | Anti-Cancer Selectivity RBC/A20 [5] | IC50 [6] | MIC [7, 15] | Therapeutic index S. aureus ([1]; EC50 RBC divided by MIC) | MIC [1, 16] | Therapeutic index MRSA ([7]; EC50 RBC divided by MIC) | MIC [7, 17] | Therapeutic index MRSE ([2]; EC50 RBC divided by MIC) | MIC [2, 18] | Therapeutic index E. coli ([3]; EC50 RBC divided by MIC) | MIC [3, 19] | Therapeutic index P. aeruginosa ([8]; EC50 RBC divided by MIC) | MIC [8, 20] | EC50 [4, 21] | also measured
1 | NCCNC(=O)C(CN)(CCC1CCCCC1)CCC1CCCCC1 [Compound 3, N-(2-aminoethyl)-2-(aminomethyl)-4-cyclohexyl-2-(2-cyclohexylethyl)butanamide] | 7.5 µg/mL | 2.5 µg/mL | 15 µg/mL | 62 µg/mL | < 3.35 µg/mL | (<5.9) | 36.5 | < 10 µg/mL |  |  |  |  |  |  |  |  |  |  |  |  | Antimicrobial potency (MIC) S. aureus [1, 9]: 10 µg/mL; Antimicrobial potency (MIC) MRSE [2, 9]: 5 µg/mL; Antimicrobial potency (MIC) E. coli [3, 9]: 10 µg/mL; Anticancer potency (IC50) A20 ([5]; Example 2, highest concentration tested 500 μg/ml, * low solubility in the test media (Table 2)): 1.7 µg/mL
2 | NCCNC(=O)C(CN)(Cc1ccccc1)Cc1ccccc1 [Compound 4] | > 200 µg/mL | > 200 µg/mL | > 200 µg/mL | > 1000 µg/mL | 68.6 µg/mL (≈ 220 µM) | 3.8 |  | 261 µg/mL (≈ 838 µM) | > 200 µg/mL |  |  |  |  |  |  |  |  |  |  |  | 
3 | CN(C)CCN1CCN(C(=O)C(CN)(Cc2ccc(C(C)(C)C)cc2)Cc2ccc(C(C)(C)C)cc2)CC1 [Compound 4d] |  |  |  |  |  |  |  |  |  |  |  |  |  |  |  |  |  |  |  |  | MBC S. aureus ([1]; ATTC 25923): >307 µM; Therapeutic index S. aureus ([1]; ATTC 25923): 26; MIC ([1]; ATTC 25923, read-out: MIC S. aureus): 13 µM; MIC S. aureus ([1]; Example 1, ATTC 25923, di TFA salts, highest concentration tested 200 μg/ml): — (The notation “—”denotes no detectable activity (MIC or EC50) within the concentration range tested.); MBC MRSA ([7]; ATCC 33591): >307 µM; Therapeutic index MRSA ([7]; ATCC 33591): 26; MIC ([7]; ATCC 33591, read-out: MIC MTRSA): 13 µM; MIC MRSA ([7]; Example 1, ATCC 33591, di TFA salts, highest concentration tested 200 μg/ml): — (The notation “—”denotes no detectable activity (MIC or EC50) within the concentration range tested.); MBC MRSE ([2]; ATCC 27626): >307 µM; Therapeutic index MRSE ([2]; ATCC 27626): 26; MIC ([2]; ATCC 27626, read-out: MIC MRSE): 13 µM; MIC MRSE ([2]; Example 1, ATCC 27626, di TFA salts, highest concentration tested 200 μg/ml): — (The notation “—”denotes no detectable activity (MIC or EC50) within the concentration range tested.); MBC E. coli ([3]; ATTC 25922): >307 µM; Therapeutic index E. coli ([3]; ATTC 25922): 26; MIC ([3]; ATTC 25922, read-out: MIC E. coli): 13 µM; MIC E. coli ([3]; Example 1, ATTC 25922, di TFA salts, highest concentration tested 200 μg/ml): — (The notation “—”denotes no detectable activity (MIC or EC50) within the concentration range tested.); Therapeutic index P. aeruginosa ([8]; ATCC 27853): 1.3; MIC ([8]; ATCC 27853): 255 µM (≈ 133 µg/mL); EC50 ([4]; red cells of human): 337 µM
4 | NCCNC(=O)C(CN)(CCCc1ccccc1)CCCc1ccccc1 [Compound 6, N-(2-aminoethyl)-2-(aminomethyl)-5-phenyl-2-(3-phenylpropyl)pentanamide] | 35 µg/mL | 15 µg/mL | 200 µg/mL | 820 µg/mL | 8.3 µg/mL (≈ 22.6 µM) | 4.2 | 98.8 | 35 µg/mL (≈ 95.2 µM) | 35 µg/mL |  |  |  |  |  |  |  |  |  |  |  | Antimicrobial potency (MIC) S. aureus [1, 9]: 50 µg/mL
5 | NCCNC(=O)C(CN)(Cc1ccc(C(F)(F)F)cc1)Cc1ccc(C(F)(F)F)cc1 [Compound 9, 3-amino-N-(2-aminoethyl)-2,2-bis(4-(trifluoromethyl)benzyl)propanamide] | 10 µg/mL | 10 µg/mL | 35 µg/mL | 287 µg/mL |  | 10-12 | 287 | < 10 µg/mL | 5 µg/mL |  |  |  |  |  |  |  |  |  |  |  | Toxicity MRC-5 ([6]; Example 2): 12 µg/mL
6 | CC(C)(C)c1ccc(CC(CN)(Cc2ccc(C(C)(C)C)cc2)C(=O)NCCN)cc1 [Compound 11, 3-amino-N-(2-aminoethyl)-2,2-bis(4-tert-butylbenzyl)propanamide] | 2.5 µg/mL | 2.5 µg/mL | 5 µg/mL | 12 µg/mL |  | 3.6 | 10.9 | 4 µg/mL (≈ 9.44 µM) | 2.5 µg/mL |  |  |  |  |  |  |  |  |  |  |  | 
7 | CN1CCN(C(=O)C(CN)(Cc2ccc(C(C)(C)C)cc2)Cc2ccc(C(C)(C)C)cc2)CC1 [Entry 5d] |  |  |  |  |  |  |  |  |  | 23 | 15 µM | 23 | 15 µM | 48 | 7.2 µM | 23 | 15 µM | 1.2 | 289 µM | 348 µM | 
8 | CN(C)CCNC(=O)C(CN)(Cc1ccc(C(C)(C)C)cc1)Cc1ccc(C(C)(C)C)cc1 [Entry 6d] |  |  |  |  |  |  |  |  |  | 37 | 7.4 µM | 37 | 7.4 µM | 74 | 3.7 µM | 37 | 7.4 µM | 3.7 | 74 µM | 274 µM | 
9 | CC(C)(C)c1ccc(CC(CN)(Cc2ccc(C(C)(C)C)cc2)C(=O)NCCN)cc1 [Entry 7d] |  |  |  |  |  |  |  |  |  | 4.7 | 3.8 µM | 4.7 | 3.8 µM | 4.7 | 3.8 µM | 2.3 | 7.7 µM | 0.8 | 23 µM | 18 µM | 
